In assay [1] the target is T1, Cbl-b (Homo sapiens, UniProt Q13191). Kind of assay: Cbl-b activity assay (Cbl-b inhibition assay), TR-FRET of Cbl-b interaction with UbcH5B-Ub. Format: biochemical. The note with it: assay buffer with 100 mM NaCl, 60 nM Src kinase; read-out: Cbl-b activity IC50. Put shortly:
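Compound-treated Cbl-b was incubated 1.5 h with Src kinase (60 nM final; 30 nM for asterisked values, which also used 50 mM instead of 100 mM NaCl), 1 mM ATP and 5 mM MgCl2. Binding to fluorescent Ub-loaded UbcH5B (C85K mutant) was then read by TR-FRET after 1 h more.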

Assay [2] deals with T1, Cbl-b. The assay can be described thus: Cbl-b inhibition assay (Cbl-b activity assay, FRET, Biological Example 1; 100 mM NaCl, 60 nM Src kinase). Format: biochemical. The note with it: upper bound stated in text lists; read-out: IC50 values in the Cbl-b inhibition assay of Biological Example 1. An outline of the steps:
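FRET read-out: loss of signal marks inhibition. Mix = biotin-Avi-Cbl-b (N-term), Src kinase, UbcH5B-Ub(Bodipy-FL, irreversible conjugate), streptavidin-Tb, assay buffer.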

In assay [3] the test system is T-cell. The assay can be described thus: IL-2 secretion from T-cells co-stimulated with anti-CD3 and anti-CD28 antibody (Biological Example 2). The assay is classed as cell-based, human. As to conditions: Homo sapiens, T-cell, fold change over baseline, primary human total T-cells, read-out: IL-2 secretion Anti-CD3/Anti-CD28 stimulation; for fold induction at 0.3 µM: 0.3 μM Cbl-b inhibitor; for fold induction at 1 µM: 1 μM Cbl-b inhibitor; for fold induction at 4 µM: 4 μM Cbl-b inhibitor. An outline of the steps:
(§1)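 Values are fold-change over baseline: readings (IL-2 release, CD25 staining) from inhibitor-treated T-cells divided against untreated cells […]. No detailed procedure stated.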

The subject of assay [4] is T-cell. The assay can be described thus: CD25 cell surface staining on T-cells stimulated with anti-CD3 antibody alone (Biological Example 2). The assay is classed as cell-based, human. The note with it: T-cell, fold change over baseline, primary human total T-cells, read-out: CD25 staining Anti-CD3 stimulation; for fold induction at 1 µM: 1 μM Cbl-b inhibitor; for fold induction at 8 µM: 8 μM Cbl-b inhibitor.

In assay [5] the test system is T-cell. The assay can be described thus: CD25 cell surface staining on T-cells co-stimulated with anti-CD3 and anti-CD28 antibody (Biological Example 2). As to conditions: Homo sapiens, T-cell, fold change over baseline, primary human total T-cells, read-out: CD25 staining Anti-CD3/Anti-CD28 stimulation; for fold induction at 0.3 µM: 0.3 μM Cbl-b inhibitor; for fold induction at 1 µM: 1 μM Cbl-b inhibitor; for fold induction at 4 µM: 4 μM Cbl-b inhibitor. Format: cell-based, human. Put shortly: as §1

In assay [6] the test system is T-cell. The assay can be described thus: IL-2 secretion from T-cells stimulated with anti-CD3 antibody alone (Biological Example 2). The assay is classed as cell-based, human. As to conditions: T-cell, fold change over baseline, primary human total T-cells, read-out: IL-2 secretion Anti-CD3 stimulation; for fold induction at 1 µM: 1 μM Cbl-b inhibitor; for fold induction at 8 µM: 8 μM Cbl-b inhibitor.

These results are taken from patent US20220324835A1 (Nurix Therapeutics, Inc., priority 2018, published 2022).

SMILES strings stand for the structures.

T1 sequence (Q13191 36-427): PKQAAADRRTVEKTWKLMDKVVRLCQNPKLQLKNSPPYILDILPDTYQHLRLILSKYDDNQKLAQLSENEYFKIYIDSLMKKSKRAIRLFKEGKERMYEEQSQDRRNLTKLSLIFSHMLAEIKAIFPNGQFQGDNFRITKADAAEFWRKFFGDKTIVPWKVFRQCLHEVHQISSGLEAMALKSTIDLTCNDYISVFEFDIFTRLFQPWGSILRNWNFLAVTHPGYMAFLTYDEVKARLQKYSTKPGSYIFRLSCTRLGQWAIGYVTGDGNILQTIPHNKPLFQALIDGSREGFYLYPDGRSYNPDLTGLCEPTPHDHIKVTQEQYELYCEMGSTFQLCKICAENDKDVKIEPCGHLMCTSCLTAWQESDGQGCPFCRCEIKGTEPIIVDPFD

Turning to `Cc1ccc(C(=O)Nc2cccc(C(C)Cc3nccn3C)c2)nc1C1CC1` (stereo not drawn) [Compound 214, 6-Cyclopropyl-5-methyl-N-(3-(1-(1-methyl-1H-imidazol-2-yl)propan-2-yl)phenyl)picolinamide], the IC50 in assay [1] is 1000 to 3000 nM; in assay [2], at most 10000 nM. Further, the results for the fold induction at 0.3 µM in assay [3] and in assay [5] were over 7.5 and under 1, respectively. The fold induction at 1 µM in assay [3] was over 7.5; in assay [4], under 0.6; in assay [5], under 1; in assay [6], 0.051 to 0.1. Moreover, the fold induction at 4 µM in assay [3] is over 7.5; in assay [5], 1.01 to 1.3. Further, the values for the fold induction at 8 µM in assay [4] and in assay [6] were under 0.6 and 0.051 to 0.1, respectively.
In the case of `Cc1ccnn1CC(C)c1cccc(NC(=O)c2cccc(C(F)(F)F)n2)c1` (stereo not drawn) [Compound 215, N-[3-[1-methyl-2-(5-methylpyrazol-1-yl)ethyl]phenyl]-6-(trifluoromethyl)pyridine-2-carboxamide], the IC50 in assay [1] was 301 to 1000 nM; in assay [2] it was at most 1000 nM. Moreover, the fold induction at 0.3 µM in assay [3] is under 1; in assay [5] it was 1.51 to 1.75. Further, the fold induction at 1 µM was under 1 in assay [3], under 0.6 in assay [4], 1.31 to 1.5 in assay [5] and 0.051 to 0.1 in assay [6]. In addition, the fold induction at 4 µM in assay [3] fell in the range of 1.01 to 2.5; in assay [5] it was 1.51 to 1.75. Also, the fold induction at 8 µM is under 0.6 in assay [4] and 0.051 to 0.1 in assay [6].
Turning to `C[C@@H](Cc1nncn1C)c1cccc(NC(=O)c2cc(C(=O)N3CC[C@H](O)C3)cc(C3CC3)n2)c1` [Compound 221, 6-Cyclopropyl-4-[(3S)-3-hydroxypyrrolidine-1-carbonyl]-N-[3-[(1S)-1-methyl-2-(4-methyl-1,2,4-triazol-3-yl)ethyl]phenyl]pyridine-2-carboxamide], the IC50 in assay [1] was 301 to 1000 nM; in assay [2] it was at most 1000 nM. Moreover, the fold induction at 0.3 µM in assay [3] is under 1; in assay [5] it was 1.01 to 1.3. For the same molecule, the fold induction at 1 µM in assay [3] was under 1; in assay [4] it was under 0.6; in assay [5], 1.31 to 1.5; in assay [6], 0.051 to 0.1. In addition, the fold induction at 4 µM was under 1 in assay [3] and 1.31 to 1.5 in assay [5]. For the same molecule, the fold induction at 8 µM in assay [4] was under 0.6; in assay [6], 0.051 to 0.1.
As for `C[C@H](Cc1nncn1C)c1cccc(N2Cc3c(cc(C4CC4)cc3C(F)(F)F)C2=O)c1` [Compound 260, (R)-6-cyclopropyl-2-(3-(1-(4-methyl-4H-1,2,4-triazol-3-yl)propan-2-yl)phenyl)-4-(trifluoromethyl)isoindolin-1-one], the concentration for half-maximal inhibition (IC50) in assay [1] is under 100 nM; in assay [2], at most 100 nM. In addition, the fold induction at 0.3 µM in assay [3] fell in the range of 1.01 to 2.5; in assay [5] it was 1.01 to 1.3. Further, the fold induction at 1 µM in assay [3] was 1.01 to 2.5; in assay [4], 0.801 to 1; in assay [5], 1.01 to 1.3; in assay [6], over 0.201. Further, the fold induction at 4 µM in assay [3] lay in the range of 2.51 to 5; in assay [5], 1.31 to 1.5. In addition, the fold induction at 8 µM is over 1 in assay [4] and over 0.201 in assay [6].
For the molecule `Cc1conc1CC(C)c1cccc(N2Cc3c(cccc3C(F)(F)F)C2=O)c1` (stereo not drawn) [Compound 268, 2-(3-(1-(4-methylisoxazol-3-yl)propan-2-yl)phenyl)-4-(trifluoromethyl)isoindolin-1-one], the results for the IC50 in assay [1] and in assay [2] were 301 to 1000 nM and at most 500 nM, respectively. Also, the values for the fold induction at 0.3 µM in assay [3] and in assay [5] were 1.01 to 2.5 and 1.01 to 1.3, respectively. Further, the fold induction at 1 µM in assay [3] was 1.01 to 2.5; in assay [4], 0.601 to 0.8; in assay [5] it was 1.01 to 1.3; in assay [6], under 0.05. In addition, the fold induction at 4 µM fell in the range of 1.01 to 2.5 in assay [3] and 1.01 to 1.3 in assay [5]. Further, the fold induction at 8 µM in assay [4] is 0.801 to 1; in assay [6] it was 0.051 to 0.1.
With `C[C@H](Cc1nncn1C)c1cccc(N2Cc3c(cc(C(=O)N4CC(O)C4)cc3C3CC3)C2=O)c1` [Compound 278, (R)-4-cyclopropyl-6-(3-hydroxyazetidine-1-carbonyl)-2-(3-(1-(4-methyl-4H-1,2,4-triazol-3-yl)propan-2-yl)phenyl)isoindolin-1-one], the IC50 is under 100 nM in assay [1] and at most 100 nM in assay [2]. Besides, the fold induction at 0.3 µM in assay [3] was 1.01 to 2.5; in assay [5], 1.01 to 1.3. For the same molecule, the fold induction at 1 µM was in the range of 1.01 to 2.5 in assay [3], 0.801 to 1 in assay [4], 1.01 to 1.3 in assay [5] and 0.151 to 0.2 in assay [6]. Also, the fold induction at 4 µM in assay [3] was in the range of 2.51 to 5; in assay [5], 1.01 to 1.3. For the same molecule, the fold induction at 8 µM in assay [4] was over 1; in assay [6], over 0.201.
`C[C@H](Cc1nncn1C)c1cccc(N2Cc3c(cc(-c4ccn[nH]4)cc3C(F)(F)F)C2=O)c1` [Compound 279, (R)-2-(3-(1-(4-methyl-4H-1,2,4-triazol-3-yl)propan-2-yl)phenyl)-6-(1H-pyrazol-5-yl)-4-(trifluoromethyl)isoindolin-1-one]: the IC50 was under 100 nM in assay [1] and at most 100 nM in assay [2]. Further, the fold induction at 0.3 µM is 2.51 to 5 in assay [3] and 1.01 to 1.3 in assay [5]. Moreover, the fold induction at 1 µM is 5 to 7.5 in assay [3], over 1 in assay [4], 1.31 to 1.5 in assay [5] and over 0.201 in assay [6]. The results for the fold induction at 4 µM in assay [3] and in assay [5] were over 7.5 and 1.31 to 1.5, respectively. The fold induction at 8 µM is over 1 in assay [4] and over 0.201 in assay [6].
As for `Cn1cnnc1CC(C)(C)c1cccc(NC(=O)c2cccc(C(F)(F)F)n2)c1` [Compound 284, N-(3-(2-methyl-1-(4-methyl-4H-1,2,4-triazol-3-yl)propan-2-yl)phenyl)-6-(trifluoromethyl)picolinamide], the half-maximal inhibitory concentration (IC50) in assay [1] is under 100 nM; in assay [2] it was at most 100 nM. Further, the values for the fold induction at 0.3 µM in assay [3] and in assay [5] were 1.01 to 2.5 and 1.01 to 1.3, respectively. Moreover, the fold induction at 1 µM is 2.51 to 5 in assay [3], 0.801 to 1 in assay [4], 1.01 to 1.3 in assay [5] and over 0.201 in assay [6]. In addition, the fold induction at 4 µM is over 7.5 in assay [3] and 1.31 to 1.5 in assay [5]. Also, the fold induction at 8 µM in assay [4] is over 1; in assay [6], over 0.201.
`Cn1cnnc1CC(c1cccc(N2Cc3c(cccc3C(F)(F)F)C2=O)c1)C(F)(F)F` (stereo not drawn) [Compound 289, 2-(3-(1,1,1-Trifluoro-3-(4-methyl-4H-1,2,4-triazol-3-yl)propan-2-yl)phenyl)-4-(trifluoromethyl)isoindolin-1-one]: the values for the IC50 in assay [1] and in assay [2] were 301 to 1000 nM and at most 500 nM, respectively. Further, the fold induction at 0.3 µM in assay [3] was under 1; in assay [5], 1.01 to 1.3. Besides, the fold induction at 1 µM is under 1 in assay [3], 0.801 to 1 in assay [4], 1.01 to 1.3 in assay [5] and 0.101 to 0.15 in assay [6]. Also, the fold induction at 4 µM fell in the range of 1.01 to 2.5 in assay [3] and 1.01 to 1.3 in assay [5]. Further, the fold induction at 8 µM is 0.801 to 1 in assay [4] and 0.151 to 0.2 in assay [6].
For `C[C@H](Cc1nncn1C)c1cccc(NC(=O)c2ccnc3ccnn23)c1` [Compound 328, (R)-N-(3-(1-(4-Methyl-4H-1,2,4-triazol-3-yl)propan-2-yl)phenyl)pyrazolo[1,5-a]pyrimidine-7-carboxamide], the figures for the IC50 in assay [1] and in assay [2] were under 100 nM and at most 100 nM, respectively. Further, the fold induction at 0.3 µM fell in the range of 1.01 to 2.5 in assay [3] and 1.01 to 1.3 in assay [5]. Also, the fold induction at 1 µM lay within 1.01 to 2.5 in assay [3], 0.801 to 1 in assay [4], 1.01 to 1.3 in assay [5] and 0.051 to 0.1 in assay [6]. For the same molecule, the fold induction at 4 µM in assay [3] was 2.51 to 5; in assay [5] it was 1.01 to 1.3. Moreover, the fold induction at 8 µM was over 1 in assay [4] and 0.101 to 0.15 in assay [6].
